According to patent publication US5220016A, “Synthesis of navelbine analogs” (priority 1991, dated 1993):
≈ marks a conversion by molar mass, not a printed value. Like-named read-outs stand apart in the source and are kept apart here.

Experiments:
[1] = 72 hr cytotoxicity assay; in vitro antitumor activity; type: cell-based; details: for in vitro antitumor activity: in words, compared with vinblastine
Protocol: The 18'(S)-epimer was tested in vitro for antitumor activity in comparison with the 18'(R)-epimer and vinblastine. IC50 's were determined in a 72 hr cytotoxicity assay.

[2] = cited from earlier work
[3] = 72 hr cytotoxicity assay, in vitro, cell line not given, read-out: IC50
[4] = compared with vinblastine and vincristine (Fellous et al., 1989)

CC[C@]12C=CCN3CC[C@@]4(c5cc([C@]6(C(=O)OC)C[C@@H]7CCCN(Cc8c6[nH]c6ccccc86)C7)c(OC)cc5N(C)[C@H]4[C@@](O)(C(=O)OC)[C@@H]1OC(C)=O)[C@@H]32 [18'(R)-Dihydrodesethylnavelbine, (+)-18'R-4'-Desethyl-4'-deshydroxy-7'-norvinblastine]
IC50 ([1]; 72 hr cytotoxicity assay, in vitro, cell line not given): no activity
in vitro antitumor activity [1]: inactive

CC[C@]12C=CCN3CC[C@@]4(c5cc([C@@]6(C(=O)OC)C[C@@H]7CCCN(Cc8c6[nH]c6ccccc86)C7)c(OC)cc5N(C)[C@H]4[C@@](O)(C(=O)OC)[C@@H]1OC(C)=O)[C@@H]32 [18'(S)-Dihydrodesethylnavelbine, (+)-18'S-4'-Desethyl-4'-deshydroxy-7'-norvinblastine]
IC50 ([1]; 72 h): 0.5 ng/mL (≈ 0.664 nM)
in vitro antitumor activity [1]: comparable to vinblastine

CCC1=C[C@@H]2CN(C1)Cc1c([nH]c3ccccc13)[C@@](C(=O)OC)(c1cc3c(cc1OC)N(C)[C@H]1[C@@](O)(C(=O)OC)[C@H](OC(C)=O)[C@]4(CC)C=CCN5CC[C@]31[C@@H]54)C2 [Navelbine]
IC50 [1, 3]: 5 ng/mL (≈ 6.42 nM)
cytotoxicity ([2]; compared with Vinblastine): decreased cytotoxicity compared with Vinblastine
antitumor activity [2, 4]: broader antitumor activity
neurotoxicity and other side effects [2, 4]: lower neurotoxicity and other side effects

CC[C@]1(O)C[C@@H]2CN(CCc3c([nH]c4ccccc34)[C@@](C(=O)OC)(c3cc4c(cc3OC)N(C)[C@H]3[C@@](O)(C(=O)OC)[C@H](OC(C)=O)[C@]5(CC)C=CCN6CC[C@]43[C@@H]65)C2)C1 [Vinblastine]
IC50 [1, 3]: 0.5 ng/mL (≈ 0.617 nM)
